SMILES strings stand for the structures. pEC50: −log10 of the molar value.

The results in this text go back to patent publication US12636275B2, “Pharmaceutical use of ketoamide-based compound” (Shanghai Institute of Materia Medica, Chinese Academy of …, priority 2020, dated 2026).

For the first assay, the system named is 2019 novel coronavirus (2019-nCov). Briefly: Inhibitory activity on replication of 2019 novel coronavirus (cytopathic effect, MTS, RD cells). It is filed as cell-based. The settings on record: CQ as positive control, different concentration gradients. A general note: Protection from cytopathic effect is a common read-out in antiviral testing.
`O=C(NCc1ccccc1)C(=O)[C@H](C[C@@H]1CCNC1=O)NC(=O)[C@H](CC1CCCCC1)NC(=O)c1ccc2ccccc2n1` [Example A42, N—((S)-1-(((S)-4-(benzylamino)-3,4-dione-1-((S)-2-oxopyrrolidin-3-yl)but-2-yl)amino)-3-cyclohexyl-1-oxopropan-2-yl)-quinoline-2-carboxamide]: the “virus inhibitory activity (in words)” value is “excellent virus inhibitory activity”.

The assay is the same for the next values; noted with them: CQ as positive control, different concentration gradients; listed as 4001.
For the molecule `O=C(NCc1ccccc1)C(=O)[C@H](C[C@@H]1CCNC1=O)NC(=O)[C@H](CC1CCCCC1)NC(=O)c1ccc2ccccc2n1` [Example A42, N—((S)-1-(((S)-4-(benzylamino)-3,4-dione-1-((S)-2-oxopyrrolidin-3-yl)but-2-yl)amino)-3-cyclohexyl-1-oxopropan-2-yl)-quinoline-2-carboxamide], the “virus inhibitory activity (in words)” value was “better than that of positive control CQ”.

Staying with this assay, now noted: Severe acute respiratory syndrome coronavirus 2, RD, read-out: EC50, inhibition of 2019-nCoV virus replication.
Regarding `O=C(NCc1ccccc1)C(=O)[C@H](C[C@@H]1CCNC1=O)NC(=O)[C@H](CC1CCCCC1)NC(=O)c1ccc2ccccc2n1` [Example A42, N—((S)-1-(((S)-4-(benzylamino)-3,4-dione-1-((S)-2-oxopyrrolidin-3-yl)but-2-yl)amino)-3-cyclohexyl-1-oxopropan-2-yl)-quinoline-2-carboxamide], the negative logarithm of the EC50 (pEC50) (usually the negative decadic logarithm of the EC50, by convention in mol/L) is 6.24.

A further assay addresses T1, 2019-nCoV 3CL protease (Severe acute respiratory syndrome coronavirus 2, UniProt P0DTD1).
T1 construct: against 3CL protease of 2019 novel coronavirus (2019-nCoV 3CL^pro)
Put plainly: Inhibitory activity against 3CL protease of 2019 novel coronavirus (FRET). The format is biochemical. The following applies: FRET, 37° C., substrate 20 μM. The protocol: To determine the inhibitory activity of the compound against 3CL protease of 2019 novel coronavirus (2019-nCoV 3CL^pro): the enzyme level inhibitory activity of inhibitors against 3CL protease was determined by fluorescence resonance energy transfer (FRET) technology. In a 96-well plate, 27.5 μL of buffer (20 mM Tris, 100 mM NaCl, 1 mM EDTA, pH 7.4) was added to each well, 2.5 μL compounds ([…], respectively) and 5 μL […] (final concentration was 3 μM) were added at the same time. Incubated at 37° C. for 15 min. Then 15 μL fluorescent substrate diluted with buffer (final concentration was 20 μM) was added. The fluorescence parameters were determined by Ge n5 fluorescence spectrophotometer. The excitation wavelength and emission wavelength were 340 nm and 490 nm respectively, kept at 37° C., and the data were read after 10 min. A negative control was used, in which no compound was added to the control, and the rest was the same.
For `CC(C)(C)NC(=O)C(=O)[C@H](C[C@@H]1CCCNC1=O)NC(=O)[C@H](CC1CCCCC1)NC(=O)c1cc2ccccc2[nH]1` [Example A6, N—((S)-1-(((S)-4-(tert-butylamino)-3,4-dione-1-((S)-2-oxopiperidin-3-yl)but-2-yl)amino)-3-cyclohexyl-1-oxopropan-2-yl)-1H-indole-2-carboxamide], the concentration for half-maximal inhibition (IC50) (commonly the concentration that inhibits the measured activity by half) amounted to 25.3 µM.
The same measure, in the same setting: as for `O=C(NCc1ccccc1)C(=O)[C@H](C[C@@H]1CCNC1=O)NC(=O)[C@H](CC1CCCCC1)NC(=O)c1cc2ccccc2s1` [Example A17, N—((S)-1-(((S)-4-(benzylamino)-3,4-dione-1-((S)-2-oxopyrrolidin-3-yl)but-2-yl)amino)-3-cyclohexyl-1-oxopropan-2-yl)-benzothiophene-2-carboxamide], the figure is 12.5 µM; as for `Cn1c(C(=O)N[C@@H](CC2CCCCC2)C(=O)N[C@@H](C[C@@H]2CCCNC2=O)C(=O)C(=O)NC(C)(C)C)cc2ccccc21` [Example A28, N—((S)-1-(((S)-4-(tert-butylamino)-3,4-dione-1-((S)-2-oxopiperidin-3-yl)but-2-yl)amino)-3-cyclohexyl-1-oxopropan-2-yl)-1-methyl-1H-indole-2-carboxamide], 15.2 µM; as for `Cn1c(C(=O)N[C@@H](CC2CCCCC2)C(=O)N[C@@H](C[C@@H]2CCCNC2=O)C(=O)C(=O)NC2CCCCC2)cc2ccccc21` [Example A29, N—((S)-3-cyclohexyl-1-(((S)-4-(cyclohexylamino)-3,4-dione-1-((S)-2-oxopiperidin-3-yl)but-2-yl)amino)-3-cyclohexyl-1-oxopropan-2-yl)-1-methyl-1H-indole-2-carboxamide], 9.8 µM.
On the same count and under the same terms, in the case of `O=C(NCc1ccccc1)C(=O)[C@H](C[C@@H]1CCNC1=O)NC(=O)[C@H](CC1CCCCC1)NC(=O)c1ccc2ccccc2n1` [Example A42, N—((S)-1-(((S)-4-(benzylamino)-3,4-dione-1-((S)-2-oxopyrrolidin-3-yl)but-2-yl)amino)-3-cyclohexyl-1-oxopropan-2-yl)-quinoline-2-carboxamide] it was 3 µM; in that of `O=C(NC1CCCCC1)C(=O)[C@H](C[C@@H]1CCNC1=O)NC(=O)[C@H](Cc1ccccc1)NC(=O)c1cc2ccccc2o1` [Example A56], 24.1 µM.
The same measure, in the same setting: as for `O=C(NC1CCCCC1)C(=O)[C@H](C[C@@H]1CCCNC1=O)NC(=O)[C@H](Cc1ccccc1)NC(=O)c1cc2ccccc2o1` [Example A59], the figure is 23.5 µM; as for `CC(C)C[C@H](NC(=O)c1cc2ccccc2[nH]1)C(=O)N[C@@H](C[C@@H]1CCNC1=O)C(=O)C(=O)NCc1ccccc1` [Example A90, N—((S)-1-(((S)-4-(benzylamino)-3,4-dione-1-((S)-2-oxopyrrolidin-3-yl)but-2-yl)amino)-4-methyl-1-oxopentan-2-yl)-1H-indole-2-carboxamide], 25.2 µM.
As for `CC(C)C[C@H](NC(=O)c1cc2c(Cl)cc(Cl)cc2[nH]1)C(=O)N[C@@H](C[C@@H]1CCNC1=O)C(=O)C(=O)NC(C)(C)C` [Example A115], the 50% inhibitory concentration (IC50) worked out at 6.5 µM.
Take `O=C(NCc1ccccc1)C(=O)[C@H](C[C@@H]1CCNC1=O)NC(=O)[C@H](Cc1ccccc1)NC(=O)c1cn2cc(Br)ccc2n1` [Example A156]: the midpoint of inhibition, the IC50, lay at 4.7 µM.
Regarding `COc1cc(OC)c2cc(C(=O)N[C@@H](Cc3ccccc3)C(=O)N[C@@H](C[C@@H]3CCNC3=O)C(=O)C(=O)NC(C)(C)C)[nH]c2c1` [Example A221, N—((S)-1-(((S)-4-(tert-butylamino)-3,4-dione-1-((S)-2-oxopyrrolidin-3-yl)but-2-yl)amino)-1-oxo-3-phenylpropan-2-yl)-4,6-dimethoxy-1H-indole-2-carboxamide], the IC50 was 5.8 µM.
Same read-out and setting: as for `CC(C)NC(=O)CC[C@H](NC(=O)[C@H](Cc1ccccc1)NC(=O)c1cc2ccccc2[nH]1)C(=O)C(=O)NCC1CCCCC1` [Example A234], the figure is 10.3 µM.
Regarding `CC(C)NC(=O)CC[C@H](NC(=O)[C@H](CC1CCCCC1)NC(=O)c1cnc2ccccc2n1)C(=O)C(=O)NCc1ccccc1` [Example A236, N—((S)-1-(((S)-4-(benzyl)-3,4-dione-1-(isopropylamino)-2-yl)amino)-3-(cyclohexyl)-1-oxopropan-2-yl)-quinoxaline-2-carboxamide], the IC50 was determined as 4.5 µM.
Molecule `CC(C)NC(=O)CC[C@H](NC(=O)[C@H](Cc1ccccc1)NC(=O)c1cnc2ccccc2n1)C(=O)C(=O)NCc1ccccc1` [Example A238] came in with an IC50 of 4.8 µM.
The same measure, in the same setting: as for `O=C(CC[C@H](NC(=O)[C@H](Cc1ccccc1)NC(=O)c1cnc2ccccc2n1)C(=O)C(=O)NCc1ccccc1)NC1CCCCC1` [Example A239, N—((S)-1-(((S)-4-(benzyl)-3,4-dione-1-(cyclohexylamino)-2-yl)amino)-3-(phenyl)-1-oxopropan-2-yl)-quinoxaline-2-carboxamide], the figure is 3.8 µM; as for `O=C(NC1CCCCC1)C(=O)[C@H](C[C@@H]1CCCNC1=O)NC(=O)[C@H](CC1CCCCC1)NC(=O)c1cc2cccc(Br)c2o1` [Example A257, N—((S)-1-(((S)-4-(cyclohexylamino)-3,4-dione-1-((S)-2-oxopiperidin-3-yl)but-2-yl)amino)-3-cyclohexyl-1-oxopropan-2-yl)-6-bromo-benzofuran-2-carboxamide], 5.2 µM; as for `CCOc1ccc2oc(C(=O)N[C@@H](CC3CCCCC3)C(=O)N[C@@H](C[C@@H]3CCCNC3=O)C(=O)C(=O)NCc3ccccc3)cc2c1` [Example A259, N—((S)-1-(((S)-4-(benzylamino)-3,4-dione-1-((S)-2-oxopiperidin-3-yl)but-2-yl)amino)-3-cyclohexyl-1-oxopropan-2-yl)-5-ethoxyl-benzofuran-2-carboxamide], 9.5 µM.
Still for that read-out and setting: in the case of `O=C(NCc1ccccc1)C(=O)[C@H](C[C@@H]1CCCNC1=O)NC(=O)[C@H](CC1CCCCC1)NC(=O)c1cccnn1` [Example A268, N—((S)-1-(((S)-4-(benzylamino)-3,4-dione-1-((S)-2-oxopiperidin-3-yl)but-2-yl)amino)-3-cyclohexyl-1-oxopropan-2-yl)-pyridazine-2-carboxamide] it was 5.6 µM.
Turning to `O=C(NCc1ccccc1)C(=O)[C@H](C[C@@H]1CCCNC1=O)NC(=O)[C@H](CC1CCCCC1)NC(=O)c1cc2c(F)c(F)ccc2[nH]1` [Example A269, N—((S)-1-(((S)-4-(benzylamino)-3,4-dione-1-((S)-2-oxopiperidin-3-yl)but-2-yl)amino)-3-cyclohexyl-1-oxopropan-2-yl)-4,5-indole-2-carboxamide], the IC50 was determined as 8.8 µM.
Consider `O=C(NCc1cc(F)cc(F)c1)C(=O)[C@H](C[C@@H]1CCCNC1=O)NC(=O)[C@H](CC1CCCCC1)NC(=O)c1cc2ccccc2o1` [Example A270, N—((S)-1-(((S)-4-(3,5-difluorobenzylamino)-3,4-dione-1-((S)-2-oxopiperidin-3-yl)but-2-yl)amino)-3-cyclohexyl-1-oxopropan-2-yl)-benzofuran-2-carboxamide], for which the 50% inhibitory concentration (IC50) was determined as 7.6 µM.
`Cc1ccc(CN(C)C(=O)C(=O)[C@H](C[C@@H]2CCCNC2=O)NC(=O)[C@H](CC2CCCCC2)NC(=O)c2cc3ccccc3o2)cc1` [Example A272, N—((S)-1-(((S)-4-(4-methylbenzylmethylamino)-3,4-dione-1-((S)-2-oxopiperidin-3-yl)but-2-yl)amino)-3-cyclohexyl-1-oxopropan-2-yl)-benzofuran-2-carboxamide] returned an IC50 of 4.8 µM.
On the same count and under the same terms, as for `O=C(NCc1ccc(-c2ccccc2)cc1)C(=O)[C@H](C[C@@H]1CCCNC1=O)NC(=O)[C@H](CC1CCCCC1)NC(=O)c1cc2ccccc2o1` [Example A275], the figure is 5.8 µM.
As to `CC(C)(C)NC(=O)C(=O)[C@H](C[C@@H]1CCNC1=O)NC(=O)[C@H](Cc1ccccc1)NC(=O)c1cc2ccccc2o1` [Example A291, N—((S)-1-(((S)-4-(tert-butylamino)-3,4-dione-1-((S)-2-oxopyrrolidin-3-yl)but-2-yl)amino)-3-phenyl-1-oxopropan-2-yl)-benzofuran-2-carboxamide], inhibition was half-maximal at 15.2 µM (IC50).
In turn, `C[C@@H](NC(=O)C(=O)[C@H](C[C@@H]1CCNC1=O)NC(=O)[C@H](CC1CCCCC1)NC(=O)c1ccc2ccccc2n1)c1ccccc1` [Example A293] gave a 50% inhibitory concentration (IC50) of 26.4 µM.
Still for that read-out and setting: in the case of `O=C(NCc1ccccc1)C(=O)[C@H](C[C@@H]1CCNC1=O)NC(=O)[C@H](Cc1cccc(F)c1)NC(=O)c1ccc2ccccc2n1` [Example A305, N—((S)-1-(((S)-4-(benzylamino)-3,4-dione-1-((S)-2-oxopyrrolidin-3-yl)but-2-yl)amino)-3-(3-fluorophenyl)-1-oxopropan-2-yl)-quinoline-2-carboxamide] it was 8.5 µM; in that of `O=C(NCc1ccccc1)C(=O)[C@H](C[C@@H]1CCNC1=O)NC(=O)[C@H](Cc1ccc(F)cc1)NC(=O)c1ccc2ccccc2n1` [Example A306, N—((S)-1-(((S)-4-(benzylamino)-3,4-dione-1-((S)-2-oxopyrrolidin-3-yl)but-2-yl)amino)-3-(4-fluorophenyl)-1-oxopropan-2-yl)-quinoline-2-carboxamide], 6.7 µM.
